We go through 16 molecules from patent US8623893B2, “Pyridino-pyridinone derivatives, preparation and therapeutic use thereof” (SANOFI, priority 2009, dated 2014).

Molecules are shown by their SMILES. Counter-ions that a name gives are not always drawn.

In data set [1] the target is T1, fusion protein Tel/PDGF-R beta (PDGF beta receptor) in BaF/3 cells (Homo sapiens, UniProt P09619).
T1 construct: the transmembrane and intracellular part of the PDGF-R beta receptor; expressed in transfected cells; host or cells: murine haematopoietic cell line BaF/3; the other entry of the earlier key: ETV6 (P41212, Transcription factor ETV6)
T1 sequence (P09619 with tags, fused parts or gaps): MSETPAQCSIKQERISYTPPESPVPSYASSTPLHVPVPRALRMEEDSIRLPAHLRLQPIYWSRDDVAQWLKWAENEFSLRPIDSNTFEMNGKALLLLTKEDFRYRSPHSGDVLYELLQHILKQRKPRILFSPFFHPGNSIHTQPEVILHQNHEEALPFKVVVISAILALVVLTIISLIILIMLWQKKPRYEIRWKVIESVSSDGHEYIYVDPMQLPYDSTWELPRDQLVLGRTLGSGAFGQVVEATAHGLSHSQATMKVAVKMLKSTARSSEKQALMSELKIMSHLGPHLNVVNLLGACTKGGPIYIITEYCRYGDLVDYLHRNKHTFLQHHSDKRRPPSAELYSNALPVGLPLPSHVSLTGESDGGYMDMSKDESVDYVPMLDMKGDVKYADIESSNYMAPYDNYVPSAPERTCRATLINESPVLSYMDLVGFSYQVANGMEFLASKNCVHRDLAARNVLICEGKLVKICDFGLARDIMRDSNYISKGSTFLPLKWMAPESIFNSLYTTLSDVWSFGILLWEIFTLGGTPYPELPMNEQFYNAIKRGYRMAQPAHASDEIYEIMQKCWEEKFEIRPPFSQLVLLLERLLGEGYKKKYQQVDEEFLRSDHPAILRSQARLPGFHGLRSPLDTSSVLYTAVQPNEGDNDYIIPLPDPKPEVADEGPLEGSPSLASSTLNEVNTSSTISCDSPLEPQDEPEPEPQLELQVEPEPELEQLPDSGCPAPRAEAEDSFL
The data set is described as follows: Inhibition of proliferation of BaF3 Tel/PDGF cells (tyrosine kinase activity of PDGF-R beta), CellTiter-Glo, 72 h. Format: cell-based, murine. As to conditions: 72 h incubation, cellular ATP, read-out: IC50 (concentration that inhibits 50% of the proliferation of Baf3 tel/PDGF cells). The text has this: (§1) The inhibitory activity with respect to PDGF or Flt-3 receptors is given by the concentration that inhibits 50% of the proliferation activity of cells Baf3 tel/PDGF or MV4-11, respectively.
Measurement of Inhibition of the Tyrosine Kinase Activity of the Receptor to PDGF Beta (PDGF-Rβ) (Baf-3 tel/PDGFRβ):
This test consists of evaluating the effects of the compounds on the tyrosine kinase activity of the PDGF beta receptor.
The inhibitory effect of the compounds according to the invention on the tyrosine kinase activity of the PDGF-R receptor was evaluated on the murine haematopoietic cell line BaF/3 transfected with a plasmid coding for the fusion protein Tel/PDGF-R beta. This fusion protein is found in chronic myeloid myelomonocytic leukaemias (CMML). It comprises the N-terminal part of the transcription factor Tel and the transmembrane and intracellular part of the PDGF-R beta receptor. This fusion protein is present in dimerized form (presence of an oligomerization domain in the N-terminal part of Tel) and accordingly leads to the constitutive activity of the kinase domain of PDGF-R beta.
The BaF3 Tel/PDGF cells are washed with phosphate buffer and seeded in 96-well plates, at a density of 5.10^4 cells/ml ([…]), in RPMI 1640 containing 10% of FCS, in the presence or absence of the test compounds. After incubation for 72 h, the viable cells are quantified by measurement of cellular ATP using the CellTiter-Glo® kit (Promega, Cat G7571). The cells are treated according to the instructions given by the supplier of the kit and the luminescence is measured with a Luminoskan (Ascent, Labsystem) with the following parameters: measurement: single; integration time: 1000 ms, lag time: 5 s.
It thus appears that the compounds according to the invention have an inhibitory activity on the tyrosine kinase activity of PDGF-R beta. This activity is given by the concentration that inhibits 50% of the proliferation of Baf3 tel/PDGF cells (IC50).
In general terms: Cellular ATP, detected with luciferase, serves as a proxy for viable cell number.

In data set [2] the target is T2, Flt-3 receptor (constitutively active mutant Flt3ITD, MV4-11 cell line) (Homo sapiens, UniProt P36888, INS600HVDFREYEYD).
T2 construct: bearing a constitutively active mutant Flt3ITD; endogenous in cells; host or cells: MV4-11
T2 sequence (P36888 with tags, fused parts or gaps INS600HVDFREYEYD): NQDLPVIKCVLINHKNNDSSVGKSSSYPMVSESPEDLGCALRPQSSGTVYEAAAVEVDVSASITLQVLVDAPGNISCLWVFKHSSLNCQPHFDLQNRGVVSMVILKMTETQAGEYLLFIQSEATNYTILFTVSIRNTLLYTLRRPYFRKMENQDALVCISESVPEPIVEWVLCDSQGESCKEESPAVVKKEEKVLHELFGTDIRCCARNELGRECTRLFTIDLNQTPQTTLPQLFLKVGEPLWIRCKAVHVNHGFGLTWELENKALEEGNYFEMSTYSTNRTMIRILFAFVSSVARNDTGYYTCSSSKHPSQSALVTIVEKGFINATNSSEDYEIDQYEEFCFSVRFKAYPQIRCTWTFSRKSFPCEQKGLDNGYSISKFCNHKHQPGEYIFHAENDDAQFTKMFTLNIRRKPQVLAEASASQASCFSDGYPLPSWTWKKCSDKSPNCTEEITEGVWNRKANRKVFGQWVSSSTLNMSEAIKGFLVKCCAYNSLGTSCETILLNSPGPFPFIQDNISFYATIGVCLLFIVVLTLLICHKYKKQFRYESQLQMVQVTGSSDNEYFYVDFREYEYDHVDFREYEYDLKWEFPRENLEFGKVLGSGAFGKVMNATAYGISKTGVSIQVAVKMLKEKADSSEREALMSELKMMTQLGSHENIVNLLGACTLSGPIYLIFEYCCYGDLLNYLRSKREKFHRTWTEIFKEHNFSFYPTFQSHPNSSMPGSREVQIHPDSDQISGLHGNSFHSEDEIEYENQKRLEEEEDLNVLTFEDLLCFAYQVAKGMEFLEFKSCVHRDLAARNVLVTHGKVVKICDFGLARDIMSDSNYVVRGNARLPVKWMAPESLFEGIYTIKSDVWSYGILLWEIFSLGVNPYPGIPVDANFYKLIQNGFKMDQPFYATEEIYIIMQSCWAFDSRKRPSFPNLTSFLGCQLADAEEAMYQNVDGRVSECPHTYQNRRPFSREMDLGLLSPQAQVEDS
The data set is described as follows: Inhibition of proliferation of MV4-11 cells (tyrosine kinase activity of Flt-3 receptor), CellTiter-Glo, 72 h. Format: cell-based. As to conditions: 72 h incubation, cellular ATP, read-out: IC50 (concentration that inhibits 50% of the proliferation of the MV4-11 cells). The protocol: as §1
Measurement of Inhibition of the Tyrosine Kinase Activity of the Flt-3 Receptor
The inhibitory effect of the compounds according to the invention on the tyrosine kinase activity of the Flt-3 receptor was evaluated on the MV4-11 cell line, a line established from a leukaemia of the AML type and bearing a constitutively active mutant Flt3ITD. The inhibitory activity is correlated with inhibition of cell growth, according to the protocols described by SPIEKERMANN, K. et al., Blood, 2003, 101, (4) 1494-1504 and O'FARRELL, A.-M. et al., Blood, 2003, 101, (9) 3597-3605.
The MV4-11 cells are washed with PBS buffer and seeded in 96-well plates, at a density of 1.10^5 cells/ml (100 μl per well), in RPMI 1640 containing 10% of FCS, in the presence or absence of the test compounds. After incubation for 72 h, viable cells are quantified by measurement of cellular ATP using the CellTiter-Glo® kit (Promega, Cat G7571). The cells are treated according to the instructions given by the supplier of the kit and the luminescence is measured using a Luminoskan (Ascent, Labsystem) with the following parameters: measurement: single; integration time: 1000 ms, lag time: 5 s.
The inhibitory activity with respect to the Flt-3 receptor is given by the concentration that inhibits 50% of the proliferation of the MV4-11 cells.

In general, melting point refers to the temperature, or range, at which the solid turns liquid. Take `CCn1c(N)c(-c2ncc[nH]2)c(=O)c2ccc(-c3ccc(CC(=O)Nc4ccccn4)cn3)nc21` (as salt: HCl) [Compound 2, 2-{6-[7-Amino-8-ethyl-6-(1H-imidazol-2-yl)-5-oxo-5,8-dihydro-[1,8]naphthyridin-2-yl]-pyridin-3-yl}-N-pyridin-2-yl-acetamide]: the melting point was 200 °C.
For `CCn1c(N)c(-c2ncc[nH]2)c(=O)c2ccc(-c3ccc(CC(=O)NCC4COCCN4C4CC4)cc3)nc21` (stereo not shown) (as salt: HCl) [Compound 3, 2-{4-[7-Amino-8-ethyl-6-(1H-imidazol-2-yl)-5-oxo-5,8-dihydro-[1,8]naphthyridin-2-yl]-phenyl}-N-(4-cyclopropyl-morpholin-3-ylmethyl)-acetamide], the melting point was 210 °C.
`Nc1c(-c2ncc[nH]2)c(=O)c2ccc(-c3ccc(CC(=O)NCc4ccncc4)cc3)nc2n1CC1CC1` (as salt: TFA) [Compound 51, 2-{4-[7-Amino-8-cyclopropylmethyl-6-(1H-imidazol-2-yl)-5-oxo-5,8-dihydro-[1,8]naphthyridin-2-yl]-phenyl}-N-pyridin-4-ylmethyl-acetamide] came in with a melting point of 118 °C.
On the same count and under the same terms, the value for `CCn1c(N)c(-c2ncc[nH]2)c(=O)c2ccc(-c3ccc(CC(=O)NCc4ccncc4)nc3)nc21` (as salt: TFA) [Compound 53, 2-{5-[7-Amino-8-ethyl-6-(1H-imidazol-2-yl)-5-oxo-5,8-dihydro-[1,8]naphthyridin-2-yl]-pyridin-2-yl}-N-pyridin-4-ylmethyl-acetamide] was 120 °C; that for `CCn1c(N)c(-c2nc(C)c[nH]2)c(=O)c2ccc(-c3ccc(CC(=O)NCc4ccncc4)cc3)nc21` (as salt: salt) [Compound 50, 2-{4-[7-Amino-8-ethyl-6-(4-methyl-1H-imidazol-2-yl)-5-oxo-5,8-dihydro-[1,8]naphthyridin-2-yl]-phenyl}-N-pyridin-4-ylmethyl-acetamide] was 144 °C.
On to `CCn1c(N)c(-c2ncc[nH]2)c(=O)c2ccc(-c3ccc(CC(=O)Nc4ccccn4)cn3)nc21` [Compound 2, 2-{6-[7-Amino-8-ethyl-6-(1H-imidazol-2-yl)-5-oxo-5,8-dihydro-[1,8]naphthyridin-2-yl]-pyridin-3-yl}-N-pyridin-2-yl-acetamide], for which the IC50 in data set [1] stood at 7.9 nM.
With `CCN1CCCC1CNC(=O)Cc1ccc(-c2ccc3c(=O)c(-c4ncc[nH]4)c(N)n(CC)c3n2)c(C)c1` (stereo not shown) [Compound 9, 2-{4-[7-Amino-8-ethyl-6-(1H-imidazol-2-yl)-5-oxo-5,8-dihydro-[1,8]naphthyridin-2-yl]-3-methyl-phenyl}-N-(1-ethyl-pyrrolidin-2-ylmethyl)-acetamide], the IC50 in data set [1] was 9.8 nM.
On the same count and under the same terms, the value for `CCn1c(N)c(-c2ncc[nH]2)c(=O)c2ccc(-c3ccc(CC(=O)Nc4ccc(C)nc4)cc3)nc21` [Compound 10, 2-{4-[7-Amino-8-ethyl-6-(1H-imidazol-2-yl)-5-oxo-5,8-dihydro-[1,8]naphthyridin-2-yl]-phenyl}-N-(6-methyl-pyridin-3-yl)-acetamide] was 2.5 nM; that for `CCn1c(N)c(-c2ncc[nH]2)c(=O)c2ccc(-c3ccc(CC(=O)Nc4nnc(C)s4)cc3)nc21` [Compound 14, 2-{4-[7-Amino-8-ethyl-6-(1H-imidazol-2-yl)-5-oxo-5,8-dihydro-[1,8]naphthyridin-2-yl]-phenyl}-N-(5-methyl-[1,3,4]thiadiazol-2-yl)-acetamide] was 2.4 nM.
Turning to `CCn1c(N)c(-c2ncc[nH]2)c(=O)c2ccc(-c3ccc(CC(=O)Nc4ncc(Cl)s4)cc3)nc21` [Compound 26, 2-{4-[7-Amino-8-ethyl-6-(1H-imidazol-2-yl)-5-oxo-5,8-dihydro-[1,8]naphthyridin-2-yl]-phenyl}-N-(5-chloro-thiazol-2-yl)-acetamide], the IC50 in data set [2] worked out at 95 nM.
`CCn1c(N)c(-c2ncc[nH]2)c(=O)c2ccc(-c3ccc(C(C)C(=O)NCc4ccncc4)cc3)nc21` (stereo not shown) [Compound 47, 2-{4-[7-Amino-8-ethyl-6-(1H-imidazol-2-yl)-5-oxo-5,8-dihydro-[1,8]naphthyridin-2-yl]-phenyl}-N-pyridin-4-ylmethyl-propionamide] returned a melting point of 186 °C.
Turning to `CCn1c(N)c(-c2ncc[nH]2)c(=O)c2ccc(-c3ccc(CCCC(=O)NCc4ccncc4)cc3)nc21` [Compound 49, 4-{4-[7-Amino-8-ethyl-6-(1H-imidazol-2-yl)-5-oxo-5,8-dihydro-[1,8]naphthyridin-2-yl]-phenyl}-N-pyridin-4-ylmethyl-butyramide], the melting point turned out to be 240 °C.
Turning to `Nc1c(-c2ncc[nH]2)c(=O)c2ccc(-c3ccc(CC(=O)NCc4ccncc4)cc3)nc2n1CC1CC1` [Compound 51, 2-{4-[7-Amino-8-cyclopropylmethyl-6-(1H-imidazol-2-yl)-5-oxo-5,8-dihydro-[1,8]naphthyridin-2-yl]-phenyl}-N-pyridin-4-ylmethyl-acetamide], in data set [1], the IC50 stood at 8.9 nM.
On the same count and under the same terms, for `Nc1c(-c2ncc[nH]2)c(=O)c2ccc(-c3ccc(CC(=O)NCc4ccncc4)cc3)nc2n1C1CCCC1` [Compound 52, 2-{4-[7-Amino-8-cyclopentyl-6-(1H-imidazol-2-yl)-5-oxo-5,8-dihydro-[1,8]naphthyridin-2-yl]-phenyl}-N-pyridin-4-ylmethyl-acetamide] the value was 13.6 nM.
The same measure, in the same setting: for `CCn1c(N)c(-c2ncc[nH]2)c(=O)c2ccc(-c3ccc(CC(=O)NCCCc4ccccc4)cc3)nc21` [Compound 55, 2-{4-[7-Amino-8-ethyl-6-(1H-imidazol-2-yl)-5-oxo-5,8-dihydro-[1,8]naphthyridin-2-yl]-phenyl}-N-(3-phenyl-propyl)-acetamide] the value was 5.9 nM.
With `CCN1CCCC1CNC(=O)Cc1ccc(-c2ccc3c(=O)c(-c4ncc[nH]4)c(N)n(CC)c3n2)cc1F` (stereo not shown) [Compound 56, 2-{4-[7-Amino-8-ethyl-6-(1H-imidazol-2-yl)-5-oxo-5,8-dihydro-[1,8]naphthyridin-2-yl]-2-fluoro-phenyl}-N-(1-ethyl-pyrrolidin-2-ylmethyl)-acetamide], the melting point is 100 °C.
